Results from ChEMBL document CHEMBL1909294, “Translating clinical findings into knowledge in drug safety evaluation--drug induced liver injury prediction system (DILIps)” (PLoS Comput Biol, 2011).

Key:
Hepatotoxicity [1] = test system: Hepatotoxicity;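 for HepSE bilirubinemia: bilirubinemia hepatic side effect score drawn from the DILIps training data, a prediction system for drug-induced liver injury; call rule not given here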;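 for HepSE cholecystitis: Cholecystitis-related hepatic side effect score drawn from the DILIps (drug-induced liver injury prediction) training data set; call rule not given here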;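 for HepSE cholelithiasis: hepatic side effect score for cholelithiasis, drawn from the DILIps training data for predicting drug-induced liver injury; call rule not given here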;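 for HepSE cirrhosis: cirrhosis hepatic side effect score taken from the DILIps (drug-induced liver injury prediction) training set; call rule not given here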;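 for HepSE elevated liver function tests: hepatic side effect score for raised liver function tests, as recorded in the DILIps training set used for predicting drug-induced liver injury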; for HepSE hepatic failure: call rule not given here;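 for HepSE hepatomegaly: hepatic side effect score for hepatomegaly, taken from the training set of the DILIps drug-induced liver injury prediction system; call rule not given here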
Hepatotoxicity [2] = test system: Hepatotoxicity; remark: listed apart in the source;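 for HepSE bilirubinemia: bilirubinemia hepatic side effect score drawn from the DILIps training data, a prediction system for drug-induced liver injury; call rule not given here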;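 for HepSE cholecystitis: Cholecystitis-related hepatic side effect score drawn from the DILIps (drug-induced liver injury prediction) training data set; call rule not given here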;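 for HepSE cholelithiasis: hepatic side effect score for cholelithiasis, drawn from the DILIps training data for predicting drug-induced liver injury; call rule not given here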;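 for HepSE cirrhosis: cirrhosis hepatic side effect score taken from the DILIps (drug-induced liver injury prediction) training set; call rule not given here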;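 for HepSE elevated liver function tests: hepatic side effect score for raised liver function tests, as recorded in the DILIps training set used for predicting drug-induced liver injury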; for HepSE hepatic failure: call rule not given here
Hepatotoxicity [3] = test system: Hepatotoxicity; remark: listed apart in the source;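 for HepSE bilirubinemia: bilirubinemia hepatic side effect score drawn from the DILIps training data, a prediction system for drug-induced liver injury; call rule not given here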;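 for HepSE cholecystitis: Cholecystitis-related hepatic side effect score drawn from the DILIps (drug-induced liver injury prediction) training data set; call rule not given here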;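 for HepSE cholelithiasis: hepatic side effect score for cholelithiasis, drawn from the DILIps training data for predicting drug-induced liver injury; call rule not given here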;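 for HepSE cirrhosis: cirrhosis hepatic side effect score taken from the DILIps (drug-induced liver injury prediction) training set; call rule not given here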;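 for HepSE elevated liver function tests: hepatic side effect score for raised liver function tests, as recorded in the DILIps training set used for predicting drug-induced liver injury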; for HepSE hepatic failure: call rule not given here
Hepatotoxicity [4] = test system: Hepatotoxicity; remark: listed apart in the source;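 for HepSE bilirubinemia: bilirubinemia hepatic side effect score drawn from the DILIps training data, a prediction system for drug-induced liver injury; call rule not given here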;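 for HepSE cholecystitis: Cholecystitis-related hepatic side effect score drawn from the DILIps (drug-induced liver injury prediction) training data set; call rule not given here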;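 for HepSE cholelithiasis: hepatic side effect score for cholelithiasis, drawn from the DILIps training data for predicting drug-induced liver injury; call rule not given here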;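 for HepSE cirrhosis: cirrhosis hepatic side effect score taken from the DILIps (drug-induced liver injury prediction) training set; call rule not given here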;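 for HepSE elevated liver function tests: hepatic side effect score for raised liver function tests, as recorded in the DILIps training set used for predicting drug-induced liver injury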; for HepSE hepatic failure: call rule not given here
Hepatotoxicity [5] = test system: Hepatotoxicity; remark: listed apart in the source; for HepSE hepatic failure: call rule not given here
Hepatotoxicity [6] = test system: Hepatotoxicity; remark: listed apart in the source; for HepSE hepatic failure: call rule not given here
Hepatotoxicity [7] = test system: Hepatotoxicity; remark: listed apart in the source
Hepatotoxicity [8] = test system: Hepatotoxicity; remark: listed apart in the source
Hepatotoxicity [9] = test system: Hepatotoxicity; remark: listed apart in the source
Hepatotoxicity [10] = test system: Hepatotoxicity; remark: listed apart in the source
Hepatotoxicity [11] = test system: Hepatotoxicity; remark: listed apart in the source
Hepatotoxicity [12] = test system: Hepatotoxicity; remark: listed apart in the source
Hepatotoxicity [13] = test system: Hepatotoxicity; remark: listed apart in the source
Hepatotoxicity [14] = test system: Hepatotoxicity; remark: listed apart in the source

O=C(NCC(O)CO)c1c(I)c(C(=O)NCC(O)CO)c(I)c(N(CCO)C(=O)CO)c1I (configuration not stated) [IOVERSOL]
HepSE_bilirubinemia (Hepatotoxicity [1]): 0 | HepSE_cholecystitis (Hepatotoxicity [2]): 0 | HepSE_cholelithiasis (Hepatotoxicity [3]): 0 | HepSE_cirrhosis (Hepatotoxicity [4]): 0 | HepSE_elevated liver function tests (Hepatotoxicity [5]): 0 | HepSE_hepatic failure (Hepatotoxicity [6]): 0 | HepSE_hepatic necrosis (Hepatotoxicity [7]): 0 | HepSE_hepatitis (Hepatotoxicity [8]): 0 | HepSE_hepatomegaly (Hepatotoxicity [9]): 0 | HepSE_jaundice (Hepatotoxicity [10]): 0 | HepSE_liver disease (Hepatotoxicity [11]): 0 | HepSE_liver fatty (Hepatotoxicity [12]): 0 | HepSE_liver function tests abnormal (Hepatotoxicity [13]): 0 | HepSE_Combined Scores (Hepatotoxicity [14]): 0

CCCCC1=NC2(CCCC2)C(=O)N1Cc1ccc(-c2ccccc2-c2nnn[nH]2)cc1 [IRBESARTAN]
HepSE_bilirubinemia (Hepatotoxicity [1]): 0 | HepSE_cholecystitis (Hepatotoxicity [2]): 0 | HepSE_cholelithiasis (Hepatotoxicity [3]): 0 | HepSE_cirrhosis (Hepatotoxicity [4]): 0 | HepSE_elevated liver function tests (Hepatotoxicity [5]): 1 | HepSE_hepatic failure (Hepatotoxicity [6]): 0 | HepSE_hepatic necrosis (Hepatotoxicity [7]): 0 | HepSE_hepatitis (Hepatotoxicity [8]): 1 | HepSE_hepatomegaly (Hepatotoxicity [9]): 0 | HepSE_jaundice (Hepatotoxicity [10]): 1 | HepSE_liver disease (Hepatotoxicity [11]): 0 | HepSE_liver fatty (Hepatotoxicity [12]): 0 | HepSE_liver function tests abnormal (Hepatotoxicity [13]): 0 | HepSE_Combined Scores (Hepatotoxicity [14]): 3

CCc1c2c(nc3ccc(OC(=O)N4CCC(N5CCCCC5)CC4)cc13)-c1cc3c(c(=O)n1C2)COC(=O)[C@]3(O)CC [IRINOTECAN]
HepSE_bilirubinemia (Hepatotoxicity [1]): 0 | HepSE_cholecystitis (Hepatotoxicity [2]): 0 | HepSE_cholelithiasis (Hepatotoxicity [3]): 0 | HepSE_cirrhosis (Hepatotoxicity [4]): 0 | HepSE_elevated liver function tests (Hepatotoxicity [5]): 0 | HepSE_hepatic failure (Hepatotoxicity [6]): 0 | HepSE_hepatic necrosis (Hepatotoxicity [7]): 0 | HepSE_hepatitis (Hepatotoxicity [8]): 0 | HepSE_hepatomegaly (Hepatotoxicity [9]): 1 | HepSE_jaundice (Hepatotoxicity [10]): 1 | HepSE_liver disease (Hepatotoxicity [11]): 0 | HepSE_liver fatty (Hepatotoxicity [12]): 0 | HepSE_liver function tests abnormal (Hepatotoxicity [13]): 0 | HepSE_Combined Scores (Hepatotoxicity [14]): 2

Cc1cc(C(=O)NNCc2ccccc2)no1 [ISOCARBOXAZID]
HepSE_bilirubinemia (Hepatotoxicity [1]): 0 | HepSE_cholecystitis (Hepatotoxicity [2]): 0 | HepSE_cholelithiasis (Hepatotoxicity [3]): 0 | HepSE_cirrhosis (Hepatotoxicity [4]): 0 | HepSE_elevated liver function tests (Hepatotoxicity [5]): 0 | HepSE_hepatic failure (Hepatotoxicity [6]): 0 | HepSE_hepatic necrosis (Hepatotoxicity [7]): 0 | HepSE_hepatitis (Hepatotoxicity [8]): 0 | HepSE_hepatomegaly (Hepatotoxicity [9]): 0 | HepSE_jaundice (Hepatotoxicity [10]): 0 | HepSE_liver disease (Hepatotoxicity [11]): 0 | HepSE_liver fatty (Hepatotoxicity [12]): 0 | HepSE_liver function tests abnormal (Hepatotoxicity [13]): 0 | HepSE_Combined Scores (Hepatotoxicity [14]): 0

FC(F)OC(Cl)C(F)(F)F (configuration not stated) [ISOFLURANE]
HepSE_bilirubinemia (Hepatotoxicity [1]): 0 | HepSE_cholecystitis (Hepatotoxicity [2]): 0 | HepSE_cholelithiasis (Hepatotoxicity [3]): 0 | HepSE_cirrhosis (Hepatotoxicity [4]): 0 | HepSE_elevated liver function tests (Hepatotoxicity [5]): 0 | HepSE_hepatic failure (Hepatotoxicity [6]): 1 | HepSE_hepatic necrosis (Hepatotoxicity [7]): 1 | HepSE_hepatitis (Hepatotoxicity [8]): 1 | HepSE_hepatomegaly (Hepatotoxicity [9]): 0 | HepSE_jaundice (Hepatotoxicity [10]): 1 | HepSE_liver disease (Hepatotoxicity [11]): 0 | HepSE_liver fatty (Hepatotoxicity [12]): 0 | HepSE_liver function tests abnormal (Hepatotoxicity [13]): 0 | HepSE_Combined Scores (Hepatotoxicity [14]): 4

NNC(=O)c1ccncc1 [ISONIAZID]
HepSE_bilirubinemia (Hepatotoxicity [1]): 1 | HepSE_cholecystitis (Hepatotoxicity [2]): 0 | HepSE_cholelithiasis (Hepatotoxicity [3]): 0 | HepSE_cirrhosis (Hepatotoxicity [4]): 0 | HepSE_elevated liver function tests (Hepatotoxicity [5]): 0 | HepSE_hepatic failure (Hepatotoxicity [6]): 0 | HepSE_hepatic necrosis (Hepatotoxicity [7]): 0 | HepSE_hepatitis (Hepatotoxicity [8]): 0 | HepSE_hepatomegaly (Hepatotoxicity [9]): 0 | HepSE_jaundice (Hepatotoxicity [10]): 1 | HepSE_liver disease (Hepatotoxicity [11]): 0 | HepSE_liver fatty (Hepatotoxicity [12]): 0 | HepSE_liver function tests abnormal (Hepatotoxicity [13]): 0 | HepSE_Combined Scores (Hepatotoxicity [14]): 2

CC(C)NCC(O)c1ccc(O)c(O)c1 (configuration not stated) [ISOPROTERENOL]
HepSE_bilirubinemia (Hepatotoxicity [1]; Liver): 0 | HepSE_cholecystitis (Hepatotoxicity [2]; Liver): 0 | HepSE_cholelithiasis (Hepatotoxicity [3]; Liver): 0 | HepSE_cirrhosis (Hepatotoxicity [4]; Liver): 0 | HepSE_elevated liver function tests (Hepatotoxicity [5]; Liver): 0 | HepSE_hepatic failure (Hepatotoxicity [6]; Liver): 0 | HepSE_hepatic necrosis (Hepatotoxicity [7]; Liver): 0 | HepSE_hepatitis (Hepatotoxicity [8]; Liver): 0 | HepSE_hepatomegaly (Hepatotoxicity [9]; Liver): 0 | HepSE_jaundice (Hepatotoxicity [10]; Liver): 0 | HepSE_liver disease (Hepatotoxicity [11]; Liver): 0 | HepSE_liver fatty (Hepatotoxicity [12]; Liver): 0 | HepSE_liver function tests abnormal (Hepatotoxicity [13]; Liver): 0 | HepSE_Combined Scores (Hepatotoxicity [14]; Liver): 0

O=[N+]([O-])O[C@H]1CO[C@H]2[C@@H]1OC[C@H]2O[N+](=O)[O-] [ISOSORBIDE DINITRATE]
HepSE_bilirubinemia (Hepatotoxicity [1]): 0 | HepSE_cholecystitis (Hepatotoxicity [2]): 0 | HepSE_cholelithiasis (Hepatotoxicity [3]): 0 | HepSE_cirrhosis (Hepatotoxicity [4]): 0 | HepSE_elevated liver function tests (Hepatotoxicity [5]): 0 | HepSE_hepatic failure (Hepatotoxicity [6]): 0 | HepSE_hepatic necrosis (Hepatotoxicity [7]): 0 | HepSE_hepatitis (Hepatotoxicity [8]): 0 | HepSE_hepatomegaly (Hepatotoxicity [9]): 0 | HepSE_jaundice (Hepatotoxicity [10]): 0 | HepSE_liver disease (Hepatotoxicity [11]): 0 | HepSE_liver fatty (Hepatotoxicity [12]): 0 | HepSE_liver function tests abnormal (Hepatotoxicity [13]): 0 | HepSE_Combined Scores (Hepatotoxicity [14]): 0

O=[N+]([O-])O[C@@H]1CO[C@H]2[C@@H]1OC[C@@H]2O [ISOSORBIDE MONONITRATE]
HepSE_bilirubinemia (Hepatotoxicity [1]): 0 | HepSE_cholecystitis (Hepatotoxicity [2]): 1 | HepSE_cholelithiasis (Hepatotoxicity [3]): 0 | HepSE_cirrhosis (Hepatotoxicity [4]): 0 | HepSE_elevated liver function tests (Hepatotoxicity [5]): 0 | HepSE_hepatic failure (Hepatotoxicity [6]): 0 | HepSE_hepatic necrosis (Hepatotoxicity [7]): 0 | HepSE_hepatitis (Hepatotoxicity [8]): 0 | HepSE_hepatomegaly (Hepatotoxicity [9]): 1 | HepSE_jaundice (Hepatotoxicity [10]): 0 | HepSE_liver disease (Hepatotoxicity [11]): 0 | HepSE_liver fatty (Hepatotoxicity [12]): 0 | HepSE_liver function tests abnormal (Hepatotoxicity [13]): 0 | HepSE_Combined Scores (Hepatotoxicity [14]): 2

CC(COc1ccccc1)NC(C)C(O)c1ccc(O)cc1 (configuration not stated) [ISOXSUPRINE]
HepSE_bilirubinemia (Hepatotoxicity [1]): 0 | HepSE_cholecystitis (Hepatotoxicity [2]): 0 | HepSE_cholelithiasis (Hepatotoxicity [3]): 0 | HepSE_cirrhosis (Hepatotoxicity [4]): 0 | HepSE_elevated liver function tests (Hepatotoxicity [5]): 0 | HepSE_hepatic failure (Hepatotoxicity [6]): 0 | HepSE_hepatic necrosis (Hepatotoxicity [7]): 0 | HepSE_hepatitis (Hepatotoxicity [8]): 0 | HepSE_hepatomegaly (Hepatotoxicity [9]): 0 | HepSE_jaundice (Hepatotoxicity [10]): 0 | HepSE_liver disease (Hepatotoxicity [11]): 0 | HepSE_liver fatty (Hepatotoxicity [12]): 0 | HepSE_liver function tests abnormal (Hepatotoxicity [13]): 0 | HepSE_Combined Scores (Hepatotoxicity [14]): 0

COC(=O)C1=C(C)NC(C)=C(C(=O)OC(C)C)C1c1cccc2nonc12 (configuration not stated) [ISRADIPINE]
HepSE_bilirubinemia (Hepatotoxicity [1]): 0 | HepSE_cholecystitis (Hepatotoxicity [2]): 0 | HepSE_cholelithiasis (Hepatotoxicity [3]): 0 | HepSE_cirrhosis (Hepatotoxicity [4]): 0 | HepSE_elevated liver function tests (Hepatotoxicity [5]): 1 | HepSE_hepatic failure (Hepatotoxicity [6]): 0 | HepSE_hepatic necrosis (Hepatotoxicity [7]): 0 | HepSE_hepatitis (Hepatotoxicity [8]): 0 | HepSE_hepatomegaly (Hepatotoxicity [9]): 0 | HepSE_jaundice (Hepatotoxicity [10]): 0 | HepSE_liver disease (Hepatotoxicity [11]): 0 | HepSE_liver fatty (Hepatotoxicity [12]): 0 | HepSE_liver function tests abnormal (Hepatotoxicity [13]): 0 | HepSE_Combined Scores (Hepatotoxicity [14]): 1

CCC(C)n1ncn(-c2ccc(N3CCN(c4ccc(OCC5COC(Cn6cncn6)(c6ccc(Cl)cc6Cl)O5)cc4)CC3)cc2)c1=O (configuration not stated) [ITRACONAZOLE]
HepSE_bilirubinemia (Hepatotoxicity [1]): 1 | HepSE_cholecystitis (Hepatotoxicity [2]): 0 | HepSE_cholelithiasis (Hepatotoxicity [3]): 0 | HepSE_cirrhosis (Hepatotoxicity [4]): 1 | HepSE_elevated liver function tests (Hepatotoxicity [5]): 0 | HepSE_hepatic failure (Hepatotoxicity [6]): 1 | HepSE_hepatic necrosis (Hepatotoxicity [7]): 0 | HepSE_hepatitis (Hepatotoxicity [8]): 1 | HepSE_hepatomegaly (Hepatotoxicity [9]): 0 | HepSE_jaundice (Hepatotoxicity [10]): 1 | HepSE_liver disease (Hepatotoxicity [11]): 1 | HepSE_liver fatty (Hepatotoxicity [12]): 0 | HepSE_liver function tests abnormal (Hepatotoxicity [13]): 1 | HepSE_Combined Scores (Hepatotoxicity [14]): 7

CNC1(c2ccccc2Cl)CCCCC1=O (configuration not stated) [KETAMINE]
HepSE_bilirubinemia (Hepatotoxicity [1]): 0 | HepSE_cholecystitis (Hepatotoxicity [2]): 0 | HepSE_cholelithiasis (Hepatotoxicity [3]): 0 | HepSE_cirrhosis (Hepatotoxicity [4]): 0 | HepSE_elevated liver function tests (Hepatotoxicity [5]): 0 | HepSE_hepatic failure (Hepatotoxicity [6]): 0 | HepSE_hepatic necrosis (Hepatotoxicity [7]): 0 | HepSE_hepatitis (Hepatotoxicity [8]): 0 | HepSE_hepatomegaly (Hepatotoxicity [9]): 0 | HepSE_jaundice (Hepatotoxicity [10]): 0 | HepSE_liver disease (Hepatotoxicity [11]): 0 | HepSE_liver fatty (Hepatotoxicity [12]): 0 | HepSE_liver function tests abnormal (Hepatotoxicity [13]): 0 | HepSE_Combined Scores (Hepatotoxicity [14]): 0
